Results as given in publication PMC3517606 (2012).

Experiments:
[1] = tested on: F21T (DNA, G4) GGGTTAGGGTTAGGGTTAGGG; assay: FRET melting; conditions: 60 mM KCl; 10 mM Tris-HCl, pH 7.4; 1 µM DNA, [Ru]:[DNA] = 2:1
[2] = tested on: ds26 (DNA, duplex) CAATCGGATCGAATTCGATCCGATTG; assay: emission spectroscopy; conditions: 100 mM KCl; 10 mM Tris-HCl, pH 7.4; 4 µM Ru, 8 µM DNA
[3] = tested on: HTG21 (DNA, G4) GGGTTAGGGTTAGGGTTAGGG; assay: luminescence titration, Scatchard; conditions: 100 mM KCl; 10 mM Tris-HCl, pH 7.4, 20 °C; 4 µM Ru; DNA concentration in base pairs
[4] = tested on: HTG21 (DNA, G4) GGGTTAGGGTTAGGGTTAGGG; assay: absorption titration; conditions: 100 mM NaCl; 10 mM Tris-HCl, 25 °C

ΔTm [1]	binding [2]	Kb [3]	Kb [4]	Compound
18.4 °C	weak	910000 M⁻¹	–	Oc1ccc(-c2nc3c4cccnc4c4ncccc4c3[nH]2)cc1.[Ru+2].c1cnc2c(c1)ccc1cccnc12.c1cnc2c(c1)ccc1cccnc12 [Λ/Δ-Ru]
15.0 °C	weak	720000 M⁻¹	8.3e+06 M⁻¹	Oc1ccc(-c2nc3c4cccnc4c4ncccc4c3[nH]2)cc1.[Ru+2].c1cnc2c(c1)ccc1cccnc12.c1cnc2c(c1)ccc1cccnc12 [Δ-Ru]
22.7 °C	weak	930000 M⁻¹	8.9e+06 M⁻¹	Oc1ccc(-c2nc3c4cccnc4c4ncccc4c3[nH]2)cc1.[Ru+2].c1cnc2c(c1)ccc1cccnc12.c1cnc2c(c1)ccc1cccnc12 [Λ-Ru]
